Measurements taken from PubChem BioAssay (NCI).
“And” between values parts separate entries of the source, which are not always exact repeats. Equal values may be shown once.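 Five compound concentrations were applied to cells in 96-well plates for 48 hours; endpoints were derived by simple linear interpolation of the resulting dose-response curve. GI50: concentration for 50% inhibition of growth. The concentration for full growth arrest is given as TGI.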

How the values were obtained:
Assay in all cases: NCI-60 cell line screen, 48 h
[1] = test system: IGROV1 ovarian
[2] = test system: NCI-H226 lung
[3] = test system: HCC-2998 colon
[4] = test system: HS 578T breast
[5] = test system: SW-620 colon
[6] = test system: RPMI-8226 leukemia
[7] = test system: NCI/ADR-RES ovarian
[8] = test system: COLO 205 colon
[9] = test system: UACC-62 melanoma
[10] = test system: SN12C renal

C/C=C/C=C/c1cc2cc3c(c(O)c2c(=O)[nH]1)C1(CC3)C(O)=c2c(=O)c3c(=O)cc(OC)c(=O)c=3c(=O)c2=C1O (stereo unspecified)
TGI [1]: 10.6 µM and 15.3 µM
GI50 [2]: 0.23 µM and 0.895 µM
TGI [2]: 3.71 µM and 8.42 µM
TGI [3]: 1.33 µM and 11.3 µM
TGI [4]: 26.7 µM
TGI [5]: 1.47 µM and 13 µM
TGI [6]: 0.678 µM and 2.2 µM
TGI [7]: 37.9 µM
TGI [8]: 1.23 µM and 6.92 µM
TGI [9]: 4.34 µM and 14.7 µM

Fc1ccccc1CN1COc2c(cc(Cl)c3cccnc23)C1
TGI [1]: 18.6 µM
TGI [2]: 2.97 µM
TGI [4]: 20.8 µM
TGI [5]: 18.4 µM
TGI [7]: 0.54 µM
TGI [8]: 28.3 µM
TGI [9]: 1.74 µM
TGI [10]: 1.57 µM

CCOc1ccc2nc(NC(=O)C(=O)C3C(=O)C(CC4C(=O)c5ccccc5C4=O)C(=O)CC3(C)C)sc2c1 (stereo unspecified)
TGI [1]: > 100 µM
TGI [2]: > 100 µM
TGI [3]: > 100 µM
TGI [4]: > 100 µM
TGI [5]: > 100 µM
TGI [7]: > 100 µM
TGI [8]: > 100 µM
TGI [9]: > 100 µM
TGI [10]: > 100 µM

N#C/C(=C\c1ccc(O)cc1)C(N)=O
TGI [1]: > 100 µM
TGI [2]: > 100 µM
TGI [3]: > 100 µM
TGI [5]: > 100 µM
TGI [6]: > 100 µM
TGI [7]: > 100 µM
TGI [8]: > 100 µM
TGI [9]: > 100 µM
TGI [10]: > 100 µM

O=S(=O)(c1ccccc1)N1CCCC(c2ccccc2)CC1 (stereo unspecified)
TGI [1]: > 100 µM
TGI [2]: > 100 µM
TGI [3]: 61.3 µM
TGI [5]: > 100 µM
TGI [6]: 49.8 µM
TGI [7]: > 100 µM
TGI [8]: > 100 µM
TGI [9]: > 100 µM
TGI [10]: > 100 µM

O=c1ccc(N=Nc2ccccc2)ccc1O
TGI [1]: 34.6 µM
TGI [2]: 24.3 µM
TGI [4]: 35.3 µM
TGI [5]: 22.5 µM
TGI [7]: 29.6 µM
TGI [8]: 31.7 µM
TGI [9]: 25.4 µM
TGI [10]: 34.6 µM

O=C(O)CNc1ccc2c(c1)Cc1cc(Br)ccc1-2
TGI [1]: > 100 µM
TGI [2]: > 79.3 µM
TGI [4]: 36.4 µM
TGI [5]: > 96.8 µM
TGI [6]: > 95.5 µM
TGI [7]: > 63.3 µM
TGI [8]: > 71 µM
TGI [9]: 76.4 µM
TGI [10]: > 69.4 µM

N=C(N)c1ccc2oc3ccc(C(=N)N)cc3c(=O)c2c1
TGI [1]: > 100 µM
TGI [2]: > 100 µM
TGI [3]: > 100 µM
TGI [5]: > 100 µM
TGI [6]: > 100 µM
TGI [7]: > 100 µM
TGI [8]: > 100 µM
TGI [9]: > 100 µM
TGI [10]: > 100 µM

NC(=NCCCCCCN=C(N)/N=C(\N)Nc1ccc(Cl)cc1)/N=C(\N)Nc1ccc(Cl)cc1
GI50 [1]: 1.28 µM
TGI [1]: 3.16 µM
GI50 [2]: 1.79 µM
TGI [2]: 9.12 µM
GI50 [3]: 1.8 µM
TGI [3]: 6.33 µM
GI50 [4]: 1.43 µM
TGI [4]: 4.73 µM
GI50 [5]: 1.54 µM
TGI [5]: 5.15 µM
GI50 [7]: 4.09 µM
TGI [7]: 50 µM
GI50 [8]: 0.951 µM
TGI [8]: 1.71 µM
GI50 [9]: 1.28 µM
TGI [9]: 4.32 µM
GI50 [10]: 1.27 µM
TGI [10]: 5.77 µM

CC1[C@@]2(CCC(C)(C)O2)O[C@@H]2C=C3C4CCC5Cc6nc7c(nc6C[C@@]5(C)C4C[C@H](O)[C@@]3(C)[C@]12O)CC1CCC2C3=C[C@H]4O[C@@]5(O[C@@](C)(CO)C[C@@H]5O)C(C)[C@@]4(O)[C@]3(C)[C@@H](O)CC2[C@]1(C)C7 (stereo partly specified)
GI50 [1]: 0.00831 µM
TGI [1]: 0.59 µM
GI50 [2]: 0.0107 µM
TGI [2]: 0.411 µM and 0.806 µM
GI50 [3]: 0.401 µM
TGI [3]: 0.86 µM
GI50 [5]: 0.00938 µM
TGI [5]: 0.499 µM and 0.0508 µM
TGI [6]: 0.032 µM
TGI [7]: 2.05 µM
GI50 [8]: 0.0141 µM
TGI [8]: 0.472 µM and 0.0525 µM
GI50 [9]: 0.00387 µM
GI50 [10]: 0.421 µM
TGI [10]: 1.19 µM

CCCN1C(=O)/C(=C/c2ccc(SC(F)(F)F)cc2)SC1=Nc1ccc(OC)cc1
GI50 [1]: 29.6 µM
TGI [1]: > 50 µM
GI50 [2]: 14.8 µM
TGI [2]: > 50 µM
GI50 [4]: 14 µM
TGI [4]: 33.4 µM
GI50 [5]: 38.6 µM
TGI [5]: > 50 µM
GI50 [6]: 11.8 µM
TGI [6]: > 50 µM
GI50 [7]: 11 µM
TGI [7]: 42.4 µM
GI50 [8]: > 50 µM
TGI [8]: > 50 µM
GI50 [9]: 10 µM
TGI [9]: 25.4 µM
GI50 [10]: 13.6 µM
TGI [10]: > 50 µM

CC(C)=C[C@@H]1C[C@H](C)[C@H]2CC[C@H](C)c3c(O)c(OC4OC(C)C(O)C(O)C4O)c(C)c1c32 (stereo partly specified)
GI50 [1]: 13.7 µM
TGI [1]: 26.8 µM
GI50 [2]: 17.3 µM
TGI [2]: 33.1 µM
GI50 [3]: 0.734 µM
TGI [3]: 3.97 µM
GI50 [4]: 11.6 µM
TGI [4]: 27.5 µM
GI50 [5]: 4.66 µM
TGI [5]: 16.3 µM
GI50 [6]: 12.5 µM
TGI [6]: 27.6 µM
GI50 [7]: 0.648 µM
TGI [7]: 16.8 µM
GI50 [8]: 14.4 µM
TGI [8]: 27.9 µM
GI50 [10]: 11.3 µM
TGI [10]: 23.5 µM

CCN(CC)CCOC(COc1cc(C)cc(C)c1)COc1cc(C)cc(C)c1
GI50 [2]: 7.16 µM
TGI [2]: 23.9 µM
GI50 [3]: 1.72 µM
TGI [3]: 3.5 µM
GI50 [4]: 4.22 µM
TGI [4]: 16.7 µM
GI50 [5]: 1.59 µM
TGI [5]: 4.63 µM
GI50 [7]: 3.34 µM
TGI [7]: 14.6 µM
GI50 [8]: 1.65 µM
TGI [8]: 3.52 µM
GI50 [9]: 1.74 µM
TGI [9]: 4.61 µM
GI50 [10]: 2.62 µM
TGI [10]: 15.6 µM
